Paper PMC7897990, “TriTOX: A novel Trichomonas vaginalis assay platform for high-throughput screening of compound libraries” (International Journal for Parasitology: Drugs and Drug …, 2021)
Structures can show the parent of a compound that is named as a salt. Where two headings read alike, the source gives them in different places.

Assays:
[1] = system: Trichomonas vaginalis G3 trophozoites; conditions: HTS, parasite screen at 1 µg/mL; for T.vaginalis_Absorbance_Rep1: replicate 1, raw absorbance; for T.vaginalis_Absorbance_Rep2: replicate 2, raw absorbance
[2] = system: nontumorigenic neonatal foreskin fibroblast (NFF) cell line
[3] = system: Trichomonas vaginalis G3 trophozoites; assay: microbe, parasite or virus in culture; conditions: 48 h
[4] = read-out: T.vaginalis_%inb_Rep1
[5] = read-out: T.vaginalis_%inb_Rep2
[6] = NFF fibroblasts, single concentration 5 µg/mL
[7] = NFF fibroblast screen at 5 µg/mL, A = active, I = inactive

SMILES | T.vaginalis_Absorbance_Rep1 [1] | T.vaginalis_Absorbance_Rep2 [1] | NFF_Activity ([2]; NFF_NS1 screen at 5 µg/mL) | inhibition of growth at 1 µg/mL [3, 4] | inhibition of growth at 1 µg/mL [3, 5] | NFF_Activity [2, 6] | NFF_Activity [2, 7] | NFF_Activity [2]
COc1cc(C)c(C(=O)Oc2cc(C)c(C(=O)O)c(O)c2C)c(OC)c1C [Diffractaic acid] | 0.965 | 0.79 | I (otherwise these were reported as inactive (I)) | 13.8% | 12.3% | – | – | –
CC[C@@H]1C[C@H]2CC[C@H](O2)[C@H](C)C(=O)O[C@@H](C)C[C@@H]2CC[C@@H](O2)[C@@H](C)C(=O)O[C@H](CC)C[C@H]2CC[C@H](O2)[C@H](C)C(=O)O[C@@H](C)C[C@@H]2CC[C@@H](O2)[C@@H](C)C(=O)O1 [Dinactin] | 0.868 | 0.733 | I (otherwise these were reported as inactive (I)) | 8.56% | 8.17% | – | – | –
C=CC(C)(C)c1[nH]c2c(CC=C(C)C)cc(CC=C(C)C)cc2c1C[C@@H]1NC(=O)[C@H](C)NC1=O [Echinulin] | 1.001 | 0.85 | I (otherwise these were reported as inactive (I)) | 15.7% | 16.6% | – | – | –
CC[C@H](C)[C@H]1C(=O)O[C@H](C(C)C)C(=O)N(C)[C@@H](C(C)C)C(=O)O[C@H](C(C)C)C(=O)N(C)[C@@H](C(C)C)C(=O)O[C@H](C(C)C)C(=O)N1C [Enniatin B1] | 0.967 | 0.828 | I (otherwise these were reported as inactive (I)) | 13.9% | 15% | – | – | –
CC(C)[C@H]1C(=O)O[C@H](C(C)C)C(=O)N(C)[C@@H](C(C)C)C(=O)O[C@H](C(C)C)C(=O)N(C)[C@@H](C(C)C)C(=O)O[C@H](C(C)C)C(=O)N1C [Enniatin B] | 0.992 | 0.695 | I (otherwise these were reported as inactive (I)) | 15.2% | 5.42% | – | – | –
C/C(=C\c1csc(C)n1)[C@@H]1C[C@@H]2O[C@@H]2CCC[C@H](C)[C@H](O)[C@@H](C)C(=O)C(C)(C)[C@@H](O)CC(=O)O1 [Epothilone A] | 2.11 | 1.991 | I (otherwise these were reported as inactive (I)) | 71.4% | 87% | – | – | –
COc1cc(C)c(C(=O)Oc2cc(C)c(C(=O)O)c(O)c2)c(O)c1 [Evernic acid] | 0.922 | 0.775 | I (otherwise these were reported as inactive (I)) | 11.5% | 11.2% | – | – | –
CC1(C)CCC[C@]2(C)[C@@H](C=O)C(C=O)=CC[C@@H]12 [Polygodial] | – | – | – | 13.1% | 13.9% | A (active (A) compounds having >25% inhibitory activity) | – | –
CCCCCC1=C/C(=C/c2[nH]c(-c3ccc[nH]3)cc2OC)N=C1C [Prodigiosin] | – | – | – | 9.63% | 1.73% | I (otherwise these were reported as inactive (I)) | – | –
CC/C=C\[C@H](O)[C@H](O)C1=C(C)C(=O)[C@]2(O1)C(=O)N[C@@](OC)(C(=O)c1ccccc1)[C@@H]2O [Pseurotin A] | – | – | – | 11.5% | 11.5% | I (otherwise these were reported as inactive (I)) | – | –
COc1cc(C(=O)O)c2c(c1C)OC(=O)c1c(C)cc(O)c(C=O)c1O2 [Psoromic acid] | – | – | – | 13.9% | 10.4% | I (otherwise these were reported as inactive (I)) | – | –
CN(C)c1ncnc2c1ncn2[C@@H]1O[C@H](CO)[C@@H](N)[C@H]1O [Puromycin aminonucleoside] | – | – | – | 15.7% | 13% | I (otherwise these were reported as inactive (I)) | – | –
O=C(c1cc(Cl)c(Cl)[nH]1)c1c(O)cccc1O [Pyoluteorin] | – | – | – | 6.82% | 7.19% | I (otherwise these were reported as inactive (I)) | – | –
CC1(C)C[C@]23[C@@H]4COC(=O)[C@H]2CC[C@H]1[C@@H]3CC4=O [Quadrone] | – | – | – | 11.6% | 11.6% | A (active (A) compounds having >25% inhibitory activity) | – | –
C=C(NC(=O)C(=C)NC(=O)c1csc(C2=N[C@@H]3c4csc(n4)[C@H]4NC(=O)c5csc(n5)[C@H]([C@](C)(O)[C@@H](C)O)NC(=O)[C@H]5CSC(=N5)/C(=C/C)NC(=O)[C@H]([C@@H](C)O)NC(=O)c5csc(n5)[C@]3(CC2)NC(=O)[C@H](C)NC(=O)C(=C)NC(=O)[C@H](C)NC(=O)[C@H]([C@@H](C)CC)N[C@@H]2C=Cc3c([C@H](C)O)cc(nc3[C@H]2O)C(=O)O[C@@H]4C)n1)C(N)=O [Thiostrepton] | – | – | – | 9.91% | 14.3% | – | I (otherwise these were reported as inactive (I)) | –
C=C[C@]1(C)C[C@@H](OC(=O)CSCCN(CC)CC)[C@]2(C)[C@H](C)CC[C@]3(CCC(=O)[C@H]32)[C@@H](C)[C@@H]1O [Tiamulin] | – | – | – | 12.6% | 13.9% | – | I (otherwise these were reported as inactive (I)) | –
CC[C@H]1OC(=O)C[C@@H](O)[C@H](C)[C@@H](O[C@@H]2O[C@H](C)[C@@H](O)[C@H](N(C)C)[C@H]2O)[C@@H](CCN2C[C@H](C)C[C@H](C)C2)C[C@@H](C)C(=O)/C=C/C(C)=C/[C@@H]1CO[C@@H]1O[C@H](C)[C@@H](O)[C@@H](OC)[C@H]1OC [Tilmicosin] | – | – | – | 2.41% | 4.94% | – | I (otherwise these were reported as inactive (I)) | –
CC(C)[C@@H]1NC(=O)[C@H](C)OC(=O)[C@@H](C(C)C)NC(=O)[C@@H](C(C)C)OC(=O)[C@H](C(C)C)NC(=O)[C@H](C)OC(=O)[C@@H](C(C)C)NC(=O)[C@@H](C(C)C)OC(=O)[C@H](C(C)C)NC(=O)[C@H](C)OC(=O)[C@@H](C(C)C)NC(=O)[C@@H](C(C)C)OC1=O [Valinomycin] | – | – | – | 9.18% | 12.2% | – | I (otherwise these were reported as inactive (I)) | –
CN[C@H](CC(C)C)C(=O)N[C@H]1C(=O)N[C@@H](CC(N)=O)C(=O)N[C@H]2C(=O)N[C@H]3C(=O)N[C@H](C(=O)N[C@H](C(=O)O)c4cc(O)cc(O)c4-c4cc3ccc4O)[C@H](O)c3ccc(c(Cl)c3)Oc3cc2cc(c3O[C@@H]2O[C@H](CO)[C@@H](O)[C@H](O)[C@H]2O[C@H]2C[C@](C)(N)[C@H](O)[C@H](C)O2)Oc2ccc(cc2Cl)[C@H]1O [Vancomycin hydrochloride] | – | – | – | 1.36% | 5.42% | – | – | I (key: active (A) compounds having >25% inhibitory activity; otherwise these were reported as inactive (I))
COc1ccc2c3c4n(c2c1)[C@H](C=C(C)C)OOC(C)(C)C[C@@H]4N1C(=O)[C@@H]2CCCN2C(=O)[C@]1(O)[C@H]3O [Verruculogen] | – | – | – | 10.3% | 10.6% | – | I (otherwise these were reported as inactive (I)) | –
O=c1[nH]c2ccccc2c(-c2ccccc2)c1O [Viridicatin] | – | – | – | 10.7% | 15.1% | – | I (otherwise these were reported as inactive (I)) | –
CC=C1CN(C)C2Cc3c([nH]c4ccccc34)C(c3cc4[nH]c5c(c4cc3OC)CCN3CC4CC(CC)C3C5(C(=O)OC)C4)CC1C2C(=O)OC (centres unmarked) [Voacamine] | – | – | – | 9.44% | 11.1% | – | I (otherwise these were reported as inactive (I)) | –
COC(=O)C1=C2Nc3ccccc3[C@@]23CCN2C[C@]4(C[C@@H]5C[C@]67CCC[C@H]6CCN6CC[C@@]8(c9cccc(OC)c9N(C4)[C@@]58O)[C@@H]67)[C@@H]4OCC[C@]4(C1)[C@H]23 [Vobtusine] | – | – | – | 9.54% | 11.4% | – | I (otherwise these were reported as inactive (I)) | –
COC(=O)/C(=C1/OC(=O)C(c2ccccc2)=C1O)c1ccccc1 [Vulpinic acid] | – | – | – | 8.02% | 11.4% | – | I (otherwise these were reported as inactive (I)) | –
Cc1nnc2n1-c1sc(CCC(=O)N3CCOCC3)cc1C(c1ccccc1Cl)=NC2 [WEB 2086] | – | – | – | 9.91% | 13.4% | – | I (otherwise these were reported as inactive (I)) | –
COC[C@H]1OC(=O)c2coc3c2[C@@]1(C)C1=C(C3=O)[C@@H]2CCC(=O)[C@@]2(C)C[C@H]1OC(C)=O [Wortmannin] | – | – | – | 7.97% | 13.5% | – | I (otherwise these were reported as inactive (I)) | –
CC1(C)C=Cc2cc3ccc(=O)oc3cc2O1 [Xanthyletin] | – | – | – | 12% | 15.5% | – | I (otherwise these were reported as inactive (I)) | –
C=C(CC[C@]12O[C@H](C(=O)O)[C@@](O)(C(=O)O)[C@](C(=O)O)(O1)[C@H](OC(=O)/C=C/[C@@H](C)C[C@@H](C)CC)[C@H]2O)[C@@H](OC(C)=O)[C@H](C)Cc1ccccc1 [Zaragozic acid A] | – | – | – | 9.75% | 7.01% | – | I (otherwise these were reported as inactive (I)) | –
C[C@H]1CCCC(=O)CCCCCc2cc(O)cc(O)c2C(=O)O1 [Zearalanone] | – | – | – | 10.1% | 14.6% | – | I (otherwise these were reported as inactive (I)) | –
C[C@H]1CCCC(=O)CCC/C=C/c2cc(O)cc(O)c2C(=O)O1 [Zearalenone] | – | – | – | 7.39% | 12% | – | I (otherwise these were reported as inactive (I)) | –
